Laboratory results as given in the supplement of paper PMC10307832.

Columns and labels:
Experiment in all cases: relative viability (nuclei count vs DMSO), 5 days (fraction); higher = more cells survive
Metformin + Decitabine = compound: CN(C)C(=N)NC(=N)N [Metformin] + Nc1ncn([C@H]2C[C@H](O)[C@@H](CO)O2)c(=O)n1 [Decitabine] (partner 2 µM)
In short: (§1)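 Nuclei were stained with Hoechst during a one-step fixation (final 0.05% Triton X-100, 1% formaldehyde, 1 ug/ml Hoechst) carried out 5 days after dosing, then counted on 4× images. The cells, lung cancer lines in 1536-well plates, had been dosed by pin tool the day after seeding with one drug alone or a fixed anchor-drug dose plus five library-drug doses (not always all listed) in √10 steps. Relative viability is the nuclei count in treated wells divided by that in vehicle wells, and each value is the median of duplicate plates.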

Apatinib + Luminespib = compound: N#CC1(c2ccc(NC(=O)c3cccnc3NCc3ccncc3)cc2)CCCC1 [Apatinib] + CCNC(=O)c1noc(-c2cc(C(C)C)c(O)cc2O)c1-c1ccc(CN2CCOCC2)cc1 [Luminespib] (partner 0.01 µM)
In short: as §1

Metformin + Bortezomib = compound: CN(C)C(=N)NC(=N)N [Metformin] + CC(C)C[C@H](NC(=O)[C@H](Cc1ccccc1)NC(=O)c1cnccn1)B(O)O [Bortezomib] (partner 0.002 µM)
In short: as §1

Apatinib + Dasatinib = compound: N#CC1(c2ccc(NC(=O)c3cccnc3NCc3ccncc3)cc2)CCCC1 [Apatinib] + Cc1nc(Nc2ncc(C(=O)Nc3c(C)cccc3Cl)s2)cc(N2CCN(CCO)CC2)n1 [Dasatinib] (partner 0.075 µM)
In short: as §1

| Cell Line | relative viability (Metformin + Decitabine; first compound 10 µM) | relative viability (Metformin + Decitabine; first compound 31.62 µM) | relative viability (Metformin + Decitabine; first compound 100 µM) | relative viability (Metformin + Decitabine; first compound 316.23 µM) | relative viability (Metformin + Decitabine; first compound 1000 µM) | relative viability (Apatinib + Luminespib; first compound 0.08 µM) | relative viability (Apatinib + Luminespib; first compound 0.253 µM) | relative viability (Apatinib + Luminespib; first compound 0.8 µM) | relative viability (Apatinib + Luminespib; first compound 2.53 µM) | relative viability (Apatinib + Luminespib; first compound 8 µM) | relative viability (Metformin + Bortezomib; first compound 10 µM) | relative viability (Metformin + Bortezomib; first compound 31.62 µM) | relative viability (Metformin + Bortezomib; first compound 100 µM) | relative viability (Metformin + Bortezomib; first compound 316.23 µM) | relative viability (Metformin + Bortezomib; first compound 1000 µM) | relative viability (Apatinib + Dasatinib; first compound 0.08 µM) | relative viability (Apatinib + Dasatinib; first compound 0.253 µM) | relative viability (Apatinib + Dasatinib; first compound 0.8 µM) | relative viability (Apatinib + Dasatinib; first compound 2.53 µM) | relative viability (Apatinib + Dasatinib; first compound 8 µM) |
| --- | --- | --- | --- | --- | --- | --- | --- | --- | --- | --- | --- | --- | --- | --- | --- | --- | --- | --- | --- | --- |
| NCI-H1993 | 0.616 | 0.681 | 0.672 | 0.634 | 0.766 | 0.885 | 0.906 | 0.886 | 0.757 | 0.673 | 1.09 | 1.19 | 1.12 | 1.18 | 1.39 | 0.63 | 0.663 | 0.558 | 0.538 | 0.503 |
| NCI-H520 | 0.463 | 0.447 | 0.461 | 0.423 | 0.485 | 0.218 | 0.245 | 0.223 | 0.216 | 0.207 | 0.777 | 0.716 | 0.75 | 0.67 | 0.928 | 0.228 | 0.205 | 0.176 | 0.203 | 0.203 |
| NCI-H1650 | 0.326 | 0.343 | 0.317 | 0.402 | 0.389 | – | 0.185 | 0.217 | 0.179 | 0.168 | 0.208 | 0.206 | 0.232 | 0.231 | 0.231 | – | 0.346 | 0.341 | 0.23 | 0.262 |
| NCI-H2085 | 0.498 | 0.453 | 0.484 | 0.531 | 0.524 | 0.396 | 0.527 | 0.429 | 0.421 | 0.361 | 1.1 | 1.05 | 1.01 | 1.09 | 1.16 | 0.229 | 0.229 | 0.231 | 0.243 | 0.215 |
| NCI-H441 | – | 0.236 | 0.262 | 0.217 | 0.262 | 0.261 | 0.296 | 0.253 | 0.406 | 0.308 | 0.273 | – | 0.344 | – | 0.404 | 0.646 | 0.486 | 0.511 | 0.566 | 0.449 |
| PC-3 [JPC-3] | 0.786 | 0.848 | – | 0.841 | 0.732 | 0.712 | 0.701 | 0.711 | 0.622 | 0.485 | 0.702 | 0.865 | 0.772 | 0.862 | 0.833 | 0.988 | 0.943 | 0.88 | 0.83 | 0.879 |
